Target: T1, HIV integrase (Human immunodeficiency virus type 1 group M subtype B, UniProt P04585)
Experiment: 3'processing/strand transfer combined assay
Assay type: biochemical
Settings: not given
Experimental: (§1) A combined 3′-processing/strand transfer assay procedure similar to that published (Ovenden et al. Phytochemistry. 2004 December; 65(24):3255-9.) was used. This assay was adapted to a 96 well plate format. Briefly, 400 ng of […] is incubated with 30 nM substrate DNA, consisting of annealed U5 LTR sequence oligonucleotides tagged with Digoxigenin (DIG; 5′-[…]-DIG-3′) or biotin (5′-Bio-[…]-3′) so that each substrate has either a DIG or Bio tag on opposite strands. Reactions are carried out for 2 hrs at 37° C., products generated as a result of 3′processing and strand transfer activity are bound to streptavidin plates and detected with using anti-DIG-alkaline phosphatase conjugate and p-nitro phenyl phosphate substrate.

For N#Cc1c(-c2ccoc2)cc(-c2ccc(N3CCOCC3)cc2)nc1OCc1ccc(C(=O)O)s1 [compound 14483], which IC50 is on record?
Its IC50 is 10 to 50 µM.

Same assay, conditions: Table 8 cells that name no assay; taken as the 3'processing/strand transfer combined assay; read-out: IC50

Which IC50 does the source give for N#Cc1c(-c2ccoc2)cc(-c2ccc(N3CCOCC3)cc2)nc1OCc1nc(C(=O)O)cs1 [compound 14693] here?
Its IC50 is less than 10 µM.

How did the IC50 turn out when N#Cc1c(-c2ccoc2)cc(-c2ccc(N3CCOCC3)cc2)nc1OCc1nc(C(=O)O)co1 [compound 14761] was run?
The IC50 was 10 to 50 µM.

Which IC50 does the source give for Cc1cc(-c2cc(-c3ccc(N4CCOCC4)cc3)nc(OCc3ccc(C(=O)O)s3)c2C#N)on1 [compound 14959] here?
The IC50 was 10 to 50 µM.

How did the IC50 turn out when Cc1cc(-c2cc(-c3ccc(N4CCOCC4)cc3)nc(OCc3csc(C(=O)O)c3)c2C#N)on1 [compound 15045] was run?
Its IC50 is less than 10 µM.

How did the IC50 turn out when N#Cc1c(-c2ccoc2)cc(-c2ccc(N3CCOCC3)cc2)nc1OCc1c(C(=O)O)csc1Br [compound 14906] was run?
Its IC50 is less than 10 µM.

CCOc1cnc(-c2cc(-c3ccc(N4CCOCC4)cc3)nc(OCc3ccsc3C(=O)O)c2C#N)o1 [compound 14963] was tested. Which IC50 did it give?
Its IC50 is 10 to 50 µM.

Which IC50 does the source give for N#Cc1c(-c2ccoc2)cc(-c2ccc(N3CCOCC3)cc2)nc1OCc1ccc(C(=O)O)cc1 [compound 14353] here?
Its IC50 is less than 10 µM.

With N#Cc1cc(C(=O)O)sc1COc1nc(-c2ccc(N3CCOCC3)cc2)cc(-c2ccoc2)c1C#N [compound 14905] as the molecule, how does the IC50 read?
The IC50 was less than 10 µM.

Which IC50 does the source give for Cc1cc(C(=O)O)ccc1COc1nc(-c2ccc(N3CCOCC3)cc2)cc(-c2ccoc2)c1C#N [compound 14499] here?
Its IC50 is less than 10 µM.

For CCOc1cnc(-c2cc(-c3ccc(N4CCOCC4)cc3)nc(OCc3csc(C(=O)O)c3)c2C#N)o1 [compound 15044], which IC50 is on record?
The IC50 was 10 to 50 µM.

Target: T1, HIV integrase
Experiment: Strand transfer specific assay
Assay type: biochemical
Settings: Table 8 cells marked (ST) / (ST assay): strand transfer specific
Experimental: as §1
The strand transfer specific assay is of similar format to that of the 3′processing/strand transfer combined assay except that it uses a biotinylated substrate that represents a pre-processed LTR end (5′-Bio-[…]-3′).

For Cc1cc(-c2cc(-c3ccc(N4CCOCC4)cc3)nc(OCc3ccc(C(=O)O)cc3Br)c2C#N)on1 [compound 15300], which IC50 is on record?
Its IC50 is less than 10 µM.

For CCOc1cnc(-c2cc(-c3ccc(N4CCOCC4)cc3)nc(OCc3sc(C(=O)O)cc3C#N)c2C#N)o1 [compound 15424], which IC50 is on record?
The IC50 was less than 10 µM.

How did the IC50 turn out when N#Cc1c(-c2oncc2C(=O)O)cc(-c2ccc(N3CCOCC3)cc2)nc1OCc1ccc(C(=O)O)s1 [compound 15435] was run?
The IC50 was less than 10 µM.

How did the IC50 turn out when CCOc1cnc(-c2cc(-c3ccc(N4CCOCC4)cc3)nc(OCc3ccc(C(=O)O)cc3Br)c2C#N)o1 [compound 15303] was run?
Its IC50 is less than 10 µM.

Tested on: HIV
Experiment: Inhibition of HIV replication (extracellular p24)
Assay type: cell-based
Settings: Human immunodeficiency virus 1; concentration inhibiting HIV p24 production to 50% of no drug controls
Experimental: Cells are seeded into 96 well microtitre plates at 50,000 cells per 50 ul per well in RF-10 containing 2 μg/mL polybrene (RF-10/2). Compounds are prepared to 4× final concentration in RF-10/2, and 30 μL added to cells. Virus (40 μL in RF-10/2 containing 1600 pfu) is added to each well or 40 μL RF-10/2 for negative controls and for assaying compound cytotoxicity. After 24 hrs, an additional 90 μL of media or media containing 1× compound is added to each well. At 4 days post infection, 100 μL of media is removed from each well and replaced with 100 μl of fresh media with or without compound. Forty eight hours later supernatants are harvested and levels of extracellular p24 determined. Supernatants are diluted 1 in 10,000 and p24 levels assayed using the Vironostika p24 assay kit. EC50 is calculated as the concentration required to inhibit HIV p24 production to 50% that of no drug controls.

N#Cc1c(-c2ccoc2)cc(-c2ccc(N3CCOCC3)cc2)nc1OCc1ccc(C(=O)O)s1 [compound 14483] was tested. Which EC50 did it give?
The EC50 was less than 10 µM.

Reference: patent publication US20100009973A1, “Integrase Inhibitors 3” (AVEXA LIMITED, priority 2006, published 2010)
